{"source": "patent US10022382B2", "about": "“RNA polymerase I inhibitors and uses thereof” (Tel HaShomer Medical Research Infrastructure and Services …, priority 2013, dated 2018)", "key": {"[1]": {"assay": "Toxicity (LD50, survival) in the EAE model, continuous administration", "type": "in vivo", "conditions": "C57BL/6J, mouse, in vivo, oral; EAE prevention model, continuous administration", "experimental": "(§1) The animals were evaluated for signs of acute toxicity and survival during the entire administration period in the EAE model.\n(§2) The therapeutic index (LD50/ED50), which is also referred to herein as Safety Margin (SM), was then determined based on the EAE model."}, "C57BL/6J mice": {"test_system": "C57BL/6J mice", "assay": "Toxicity (LD50, survival) in the EAE model, continuous administration", "type": "in vivo", "conditions": "EAE prevention model", "experimental": "as §1, §2"}, "[2]": {"test_system": "Experimental Autoimmune Encephalomyelitis (EAE)", "conditions": "cited from earlier work"}, "Solubility in mQ water": {"assay": "Solubility in mQ water", "type": "physicochemical", "conditions": "50 mg in 0.5 mL mQ water, room temperature", "experimental": "The solubility of Compounds 1 and 10 was determined by dissolving 50 mg of the tested compound in 0.5 mL of mQ water, at room temperature."}, "[3]": {"test_system": "MOG35-55 EAE in C57BL/6J mice", "assay": "MOG35-55 EAE prevention (immunization) model", "type": "in vivo", "conditions": "Mus musculus", "experimental": "Mice: Eight-weeks-old female C57BL/6J mice (15-20 g, Harlan laboratories, Rehovot, Israel) were used in all experiments. Animal maintenance and experimental protocols were performed in accordance with the Israeli Council for Animal Care guidelines and approved by Sheba IRB Animal Care Committee. Mice were kept in an SPF environment, maintained on a 12-h light/dark cycle at a constant environmental temperature with free access to food and water in their home cages.\nInduction of MOG35-55 EAE (Prevention Model): EAE (Experimental Autoimmune Encephalomyelitis) was induced in 8 week old female C57BL/6J mice (15-20 g, Harlan laboratories, Rehovot, Israel) by immunization with an emulsion containing 300 μg of purified myelin oligodendrocyte glycoprotein (MOG) peptide ([…], corresponding to residues 35-55; obtained from (Difco, Detroit, Mich.) in saline and an equal volume of complete Freund's adjuvant containing 5 mg H37RA (Difco, Detroit, Mich.). 0.2 ml of the inoculum was injected subcutaneously. In addition, 300 ng of Bordetella pertusis toxin (Sigma) in 0.2 ml saline was injected intraperitoneally at the day of induction and two days later.\nOral gavages with the tested compound, at various concentrations ranging from 3 mg/kg-30 mg/kg in PBS or 50 mM NaH2PO4 (PH 4.5), or with vehicle only, were initiated at day of immunization. Mice were monitored daily for clinical signs of EAE, scored as: 1, flaccid tail; 2, forelimb weakness and poor righting ability; 3, hind limb paralysis; 4, quadriplegia; 5, moribund. Animal reaching a score of 4 were scarified using CO2.\nTreatment was stopped once 30% of the vehicle-treated animals scored 1 on the EAE score. […]\nThe therapeutic index (LD50/ED50), which is also referred to herein as Safety Margin (SM), was then determined based on the EAE model. ED50 is the minimum effective dose observed for 50% of the tested animals."}, "Mouse splenocytes": {"test_system": "Mouse splenocytes", "assay": "XTT cell viability assay, PHA-stimulated splenocytes", "type": "cell-based", "conditions": "72 hours; for IC50: Splenocyte; for IC50 / XTT IC50: mouse splenocytes, 25-400 nM", "experimental": "Cell viability was assessed by the 2,3 bis [2-Methoxy-4-nitro-5-sulfophenyl]-2H-tetrazolium-5-carboxanilide (XTT) assay (Biological Industries, Kibbutz Beit Hemeek, Israel), which measures the reduction of a tetrazolium component (XTT) into soluble formazan product by the mitochondria of viable cells. The intensity of the dye obtained is proportional to the number of metabolic active cells. On the day of measurement, cells were washed and XTT was added according to the manufacturer's instructions. Plates were incubated at 37° C. for 2-5 hours. The absorbance was read at 450 nm.\nMouse splenocytes were removed and spleenocytes were plated (250,000 cell/well) in DMEM+10% FCS+P/S+Q and […] Phytohaemaglutinin (PHA), in the presence of elevated concentrations (25-400 nM) of RAM-0 (Compound 1), RAM-1 (Compound 4), RAM-2 (Compound 2) or RAM-3 (Compound 3) for 72 hours. Cells cultured without PHA served as control. Control mice at zero are mice splenocytes with PHA stimulation.\nFollowing incubation, cell viability was determined by XTT assay, as described above."}, "POL-I": {"test_system": "POL-I", "conditions": "human cancer cell lines; cited from earlier work"}}, "data": [{"smiles": "Cc1cnc(CNC(=O)c2c(=O)c3ccc(N4CCCN(C)CC4)nc3n3c2sc2ccccc23)cn1", "note": "[Compound 1, 2-(4-methyl-1,4-diazepan-1-yl)-N-((5-methylpyrazin-2-yl)methyl)-5-oxo-5H-benzo[4,5]thiazolo[3,2-a][1,8]naphthyridine-6-carboxamide, reference compound]", "values": [{"measurement": "LD50", "setting": "[1]", "result": 25, "unit": "mg/kg"}, {"measurement": "SM (therapeutic index LD50/ED50)", "setting": "C57BL/6J mice", "result": 2}, {"measurement": "EAE disease severity", "setting": "[2]; administered at clinical disease onset", "result": "reduce the disease severity"}, {"measurement": "EAE prevention", "setting": "[2]; administered at disease induction", "result": "prevent animal Experimental Autoimmune Encephalomyelitis (EAE)"}, {"measurement": "solubility", "setting": "Solubility in mQ water", "result": "dissolved only in a pH 4.5 buffered solution after vigorous stirring for 30 minutes"}, {"measurement": "ED50", "setting": "[3]", "result": 12.5, "unit": "mg/kg"}, {"measurement": "IC50", "setting": "Mouse splenocytes", "result": 50, "unit": "nM"}, {"measurement": "POL-I activity", "setting": "POL-I", "result": "inhibited POL-I activity"}]}, {"smiles": "Cc1cnc(CNC(=O)c2c(Cl)c3ccc(N4CCCN(C)CC4)nc3[n+]3c2sc2ccccc23)cn1", "note": "[Compound 2, 5-chloro-2-(4-methyl-1,4-diazepan-1-yl)-6-(((5-methylpyrazin-2-yl)methyl)carbamoyl)benzo[4,5]thiazolo[3,2-a][1,8]naphthyridin-12-ium]", "values": [{"measurement": "suppression of splenocyte proliferation compared to Compound 1 (XTT)", "setting": "Mouse splenocytes", "result": "no substantial effect"}, {"measurement": "XTT IC50", "setting": "Mouse splenocytes", "result": "No Effect"}]}, {"smiles": "Cc1cnc(CNC(=O)c2c(=S)c3ccc(N4CCCN(C)CC4)nc3n3c2sc2ccccc23)cn1", "note": "[Compound 3, 2-(4-methyl-1,4-diazepan-1-yl)-N-((5-methylpyrazin-2-yl)methyl)-5-thioxo-5H-benzo[4,5]thiazolo[3,2-a][1,8]naphthyridine-6-carboxamide]", "values": [{"measurement": "effectiveness in suppressing proliferation compared to Compound 1", "setting": "Mouse splenocytes", "result": 6, "unit": "folds"}, {"measurement": "IC50", "setting": "Mouse splenocytes", "result": 20, "unit": "nM"}]}, {"smiles": "Cc1cnc(CNC(=O)c2c(=N)c3ccc(N4CCCN(C)CC4)nc3n3c2sc2ccccc23)cn1", "note": "[Compound 4, 5-imino-2-(4-methyl-1,4-diazepan-1-yl)-N-((5-methylpyrazin-2-yl)methyl)-5H-benzo[4,5]thiazolo[3,2-a][1,8]naphthyridine-6-carboxamide]", "values": [{"measurement": "suppression of splenocyte proliferation compared to Compound 1 (XTT)", "setting": "Mouse splenocytes", "result": "dose response curve similar to RAM-0 (Compound 1)"}, {"measurement": "IC50", "setting": "Mouse splenocytes", "result": 50, "unit": "nM"}]}, {"smiles": "C/N=c1/c(C(=O)NCc2cnc(C)cn2)c2sc3ccccc3n2c2nc(N3CCCN(C)CC3)ccc12", "note": "[Compound 5, (E/Z)-2-(4-methyl-1,4-diazepan-1-yl)-5-(methylimino)-N-((5-methylpyrazin-2-yl)methyl)-5H-benzo[4,5]thiazolo[3,2-a][1,8]naphthyridine-6-carboxamide]", "values": [{"measurement": "IC50", "setting": "Mouse splenocytes", "result": 50, "unit": "nM"}]}, {"smiles": "CCC/N=c1/c(C(=O)NCc2cnc(C)cn2)c2sc3ccccc3n2c2nc(N3CCCN(C)CC3)ccc12", "note": "[Compound 6]", "values": [{"measurement": "IC50", "setting": "Mouse splenocytes", "result": 50, "unit": "nM"}]}, {"smiles": "Cc1cnc(CNC(=O)c2/c(=N/C(C)C)c3ccc(N4CCCN(C)CC4)nc3n3c2sc2ccccc23)cn1", "note": "[Compound 7]", "values": [{"measurement": "IC50", "setting": "Mouse splenocytes", "result": 50, "unit": "nM"}]}, {"smiles": "CO/N=c1/c(C(=O)NCc2cnc(C)cn2)c2sc3ccccc3n2c2nc(N3CCCN(C)CC3)ccc12", "note": "[Compound 8]", "values": [{"measurement": "IC50", "setting": "Mouse splenocytes", "result": 50, "unit": "nM"}]}, {"smiles": "Cc1cnc(CNc2nc(=O)nc3c4ccc(N5CCCN(C)CC5)nc4n4c(sc5ccccc54)c2-3)cn1", "note": "[Compound 9]", "values": [{"measurement": "XTT IC50", "setting": "Mouse splenocytes", "result": "No Effect"}]}]}
